The record followed here is patent US20100010053A1, “COMPOUNDS” (priority 2008, published 2010).

This assay addresses T1, human S1P1 receptor (EDG1) (Homo sapiens, UniProt P21453).
T1 construct: TEV protease site + Gal4-VP16 transcription factor (only in the Tango assay cells; not described for the GTPγS membranes); expressed in transfected cells; host or cells: rat hepatoma cells (membranes, GTPγS assay) or Tango EDG1-bla U2OS cells (Tango assay)
Kind of assay: S1P1 GTPγS assay or S1P1 Tango assay (at least one of the above assays). The class given is cell-based. The following applies: read-out: pEC50 in at least one of the above assays (converted). The method, then:
For membrane preparations all steps were performed at 4° C. Rat hepatoma cells stably expressing the human S1P1 receptor or Rat Basophilic Leukaemia cells (RBL) stably expressing human S1P3 receptor were grown to 80% confluency before being harvested into 10 ml Phospho-Buffered Saline (PBS) and centrifuged at 1200 rpm for 5 minutes. After removal of the supernatant, the pellet was re-suspended and cells were homogenised within a glass Waring blender for 2 bursts of 15 secs in 200 mls of buffer (50 mM HEPES, 1 mM leupeptin, 25 μg/ml bacitracin, 1 mM EDTA, 1 mM PMSF, 2 μM pepstatin A). The blender was plunged into ice for 5 mins after the first burst and 10-40 mins after the final burst to allow foam to dissipate. The material was then spun at 500 g for 20 mins and the supernatant spun for 36 mins at 48,000 g. The pellet was resuspended in the same buffer as above but without PMSF and pepstatin A. The material was then forced through a 0.6 mm needle, made up to the required volume, (usually ×4 the volume of the original cell pellet), aliquoted and stored frozen at −80° C. S1P1 GTPγS assay Human S1P1 rat hepatoma membranes (1.5 μg/well) were adhered to a wheatgerm agglutinin (WGA)-coated scintillation proximity assay (SPA) beads (0.125 mg/well) in assay buffer (HEPES 20 mM, MgCl2 10 mM, NaCl 100 mM and pH adjusted to 7.4 using KOH 5M, GDP 10 μM FAC (final assay concentration) and saponin 90 μg/ml FAC was also added).
After 30 minutes pre-coupling on ice the bead and membrane suspension was dispensed into a white Greiner polypropylene LV384-well plate (5 μl/well), containing 0.1 μl of the compound. 5 μl/well [^35S]-GTPγS (0.5 nM final radioligand conc) made up in assay buffer was then added to agonist plates. The final assay cocktail (10.1 μl) was then centrifuged at 1000 rpm for 5 minutes then read immediately on a Viewlux reader.
All test compounds were dissolved in DMSO at a concentration of 10 mM and were prepared in 100% DMSO using a 1 in 4 dilution step to provide 11 point dose response curves. The dilutions were transferred to the assay plates ensuring that the DMSO concentration was constant across the plate for all assays.
All data was normalized to the mean of 16 high and 16 low control wells on each plate. A four parameter curve fit was then applied.
Recombinant EDG1-bla/U2OS cells (contain the human Endothelial Differentiation Gene 1 (EDG1) linked to a TEV protease site and a Gal4-VP16 transcription factor stably integrated into the Tango GPCR-bla U2OS parental cell line) were suspended in assay medium (Invitrogen Freestyle Expression Medium) at a density of 312, 500 cells/ml. Add 100 μl/well of the assay medium to the cell-free control wells (column 12) and 100 μl/well of the cell suspension to the test compound wells (row 2-8, column 1-10), the unstimulated control wells (DMSO) (column 11), and stimulated control wells (S1P) (row 1, column 1-10) in a Corning black-well, clear bottom 96-well plate. Cells were incubated at 37° C., 5% CO2 for 44-48 h. Add 25 μl of 5× stock solution of test compounds in assay medium with 0.5% DMSO to the test compound wells, 25 μl of 5× stock solution of agonist (S1P) in assay medium with 0.5% DMSO to the stimulated compound wells, and 25 μl of 5× stock solution of 0.5% DMSO in assay medium to the unstimulated control and cell-free control wells.
After incubation at 37° C., 5% CO2 for 5 h, 25 μl of 6× substrate mixture (6 μl Solution A (1 mg LiveBLAzer™-FRET B/G substrate (CCF4-AM) in 912 μl DMSO) plus 60 μl Solution B plus 934 μl Solution C) was added to each well and incubate at room temperature for 2 h in dark. The plate was finally read on EnVision for two emission channels (460 nm and 530 nm).
All test compounds were dissolved in DMSO at a concentration of 10 mM and were prepared in 100% DMSO using a 1 in 5 dilution step to provide 10 point dose response curves. […]

T1 sequence (P21453 whole entry, the tested form may be a part): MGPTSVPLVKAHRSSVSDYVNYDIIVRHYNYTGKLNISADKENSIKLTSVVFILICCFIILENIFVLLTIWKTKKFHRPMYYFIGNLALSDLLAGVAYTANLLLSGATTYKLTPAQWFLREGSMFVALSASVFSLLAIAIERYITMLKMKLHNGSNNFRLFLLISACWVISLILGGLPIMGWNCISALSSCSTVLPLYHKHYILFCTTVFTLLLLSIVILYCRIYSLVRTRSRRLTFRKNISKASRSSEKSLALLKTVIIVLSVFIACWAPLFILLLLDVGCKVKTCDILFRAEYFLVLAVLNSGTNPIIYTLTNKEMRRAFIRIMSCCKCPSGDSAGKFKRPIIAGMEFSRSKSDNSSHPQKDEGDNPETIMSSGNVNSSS

As to `CC(C)Oc1ccc(-c2nc(-c3cccc4c(CCC(=O)O)c[nH]c34)no2)cc1Cl` [Example 1, 3-[7-(5-{3-chloro-4-[(1-methylethyl)oxy]phenyl}-1,2,4-oxadiazol-3-yl)-1H-indol-3-yl]propanoic acid], the EC50 is less than 10 nM. For the molecule `CC(C)Oc1ccc(-c2nc(-c3cccc4c(CCC(=O)O)cn(C)c34)no2)cc1Cl` [Example 2, 3-[7-(5-{3-Chloro-4-[(1-methylethyl)oxy]phenyl}-1,2,4-oxadiazol-3-yl)-1-methyl-1H-indol-3-yl]propanoic acid], the EC50 was less than 10 nM.

For the molecule `CC(C)Oc1ccc(-c2nc(-c3cccc4c(CCC(=O)O)c[nH]c34)no2)cc1C#N` [Example 3, 3-[7-(5-{3-Cyano-4-[(1-methylethyl)oxy]phenyl}-1,2,4-oxadiazol-3-yl)-1H-indol-3-yl]propanoic acid], the EC50 was less than 1 nM. As for `CC(C)Oc1ccc(-c2nc(-c3ccc4c(CCC(=O)O)c[nH]c4c3)no2)cc1C#N` [Example 7, 3-[6-(5-{3-Cyano-4-[(1-methylethyl)oxy]phenyl}-1,2,4-oxadiazol-3-yl)-1H-indol-3-yl]propanoic acid], the EC50 was less than 1 nM.

Turning to `CC(C)Oc1ccc(-c2nc(-c3ccc4[nH]c(C(=O)O)cc4c3)no2)cc1Cl` [Example 8, Sodium 5-(5-{3-chloro-4-[(1-methylethyl)oxy]phenyl}-1,2,4-oxadiazol-3-yl)-1H-indole-2-carboxylate], the EC50 is not below 1000 nM. The value for `CC(C)Oc1ccc(-c2nc(-c3ccc(F)c4c(CCC(=O)O)c[nH]c34)no2)cc1Cl` [Example 19, 3-[7-(5-{3-Chloro-4-[(1-methylethyl)oxy]phenyl}-1,2,4-oxadiazol-3-yl)-4-fluoro-1H-indol-3-yl]propanoic acid] was less than 10 nM; that for `CC(C)Oc1ccc(-c2nc(-c3ccc(F)c4c(CCC(=O)O)cn(C)c34)no2)cc1Cl` [Example 20, 3-[7-(5-{3-Chloro-4-[(1-methylethyl)oxy]phenyl}-1,2,4-oxadiazol-3-yl)-4-fluoro-1-methyl-1H-indol-3-yl]propanoic acid] was less than 10 nM; that for `CC(C)Oc1ccc(-c2nc(-c3ccc(F)c4c(CCC(=O)O)c[nH]c34)no2)cc1C#N` [Example 21, 3-[7-(5-{3-Cyano-4-[(1-methylethyl)oxy]phenyl}-1,2,4-oxadiazol-3-yl)-4-fluoro-1H-indol-3-yl]propanoic acid] was less than 10 nM.

Consider `CCCCn1cc(CCC(=O)O)c2cccc(-c3noc(-c4ccc(OC(C)C)c(Cl)c4)n3)c21` [Example 29, 3-[1-butyl-7-(5-{3-chloro-4-[(1-methylethyl)oxy]phenyl}-1,2,4-oxadiazol-3-yl)-1H-indol-3-yl]propanoic acid], for which the EC50 is not below 1000 nM.

On to `CC(C)Cn1cc(CCC(=O)O)c2cccc(-c3noc(-c4ccc(OC(C)C)c(Cl)c4)n3)c21` [Example 30, 3-[7-(5-{3-chloro-4-[(1-methylethyl)oxy]phenyl}-1,2,4-oxadiazol-3-yl)-1-(2-methylpropyl)-1H-indol-3-yl]propanoic acid], for which the EC50 was not below 1000 nM. With `CC(C)Oc1ccc(-c2nc(-c3cccc4c(C[C@@H](C)C(=O)O)cn(C)c34)no2)cc1Cl` [Example 36, (2R)-3-[7-(5-{3-chloro-4-[(1-methylethyl)oxy]phenyl}-1,2,4-oxadiazol-3-yl)-1-methyl-1H-indol-3-yl]-2-methylpropanoic acid], the EC50 is less than 10 nM. For the molecule `COc1ccc(-c2nc(-c3cccc4c(CCC(=O)O)cn(C)c34)no2)cc1OC` [Example 44, 3-(7-{5-[3,4-bis(methyloxy)phenyl]-1,2,4-oxadiazol-3-yl}-1-methyl-1H-indol-3-yl)propanoic acid], the EC50 was not below 1000 nM.

`CC(C)Oc1ccc(-c2nc(-c3cccc4c(CNCCC(=O)O)c[nH]c34)no2)cc1Cl` [Example 46, N-{[7-(5-{3-chloro-4-[(1-methylethyl)oxy]phenyl}-1,2,4-oxadiazol-3-yl)-1H-indol-3-yl]methyl}-β-alanine]: the EC50 is less than 10 nM. `CC(C)Oc1ccc(-c2nc(-c3cccc4c(CNCC(=O)O)c[nH]c34)no2)cc1Cl` [Example 47, N-{[7-(5-{3-chloro-4-[(1-methylethyl)oxy]phenyl}-1,2,4-oxadiazol-3-yl)-1H-indol-3-yl]methyl}glycine]: the EC50 was less than 1 nM. Take `CC(C)Oc1ccc(-c2nc(-c3cccc4c(CN5CCC(C(=O)O)CC5)c[nH]c34)no2)cc1Cl` [Example 48, 1-{[7-(5-{3-chloro-4-[(1-methylethyl)oxy]phenyl}-1,2,4-oxadiazol-3-yl)-1H-indol-3-yl]methyl}-4-piperidinecarboxylic acid]: the EC50 is less than 10 nM. For `CC(C)Oc1ccc(-c2nc(-c3cccc4c(CN[C@H](C)C(=O)O)c[nH]c34)no2)cc1Cl` [Example 49, N-{[7-(5-{3-chloro-4-[(1-methylethyl)oxy]phenyl}-1,2,4-oxadiazol-3-yl)-1H-indol-3-yl]methyl}-D-alanine], the EC50 was less than 1 nM. In the case of `CC(C)Oc1ccc(-c2nc(-c3cccc4c(CNCCC(=O)O)cn(C)c34)no2)cc1Cl` [Example 58, N-{[7-(5-{3-chloro-4-[(1-methylethyl)oxy]phenyl}-1,2,4-oxadiazol-3-yl)-1-methyl-1H-indol-3-yl]methyl}-β-alanine] it was less than 1 nM; in that of `CC(C)Oc1ccc(-c2nc(-c3cccc4c(CCN5CC(C(=O)O)C5)cn(C)c34)no2)cc1Cl` [Example 67, 1-{2-[7-(5-{3-chloro-4-[(1-methylethyl)oxy]phenyl}-1,2,4-oxadiazol-3-yl)-1-methyl-1H-indol-3-yl]ethyl}-3-azetidinecarboxylic acid], less than 10 nM. On to `CC(C)Oc1ccc(-c2nc(-c3cccc4c(CCNC5(C(=O)O)CC5)cn(C)c34)no2)cc1Cl` [Example 68, 1-({2-[7-(5-{3-chloro-4-[(1-methylethyl)oxy]phenyl}-1,2,4-oxadiazol-3-yl)-1-methyl-1H-indol-3-yl]ethyl}amino)cyclopropanecarboxylic acid], for which the EC50 is less than 10 nM. In the case of `CC(C)Oc1ccc(-c2nc(-c3cccc4c(C(=O)NCCC(=O)O)c[nH]c34)no2)cc1Cl` [Example 73, N-{[7-(5-{3-chloro-4-[(1-methylethyl)oxy]phenyl}-1,2,4-oxadiazol-3-yl)-1H-indol-3-yl]carbonyl}-β-alanine], the EC50 is less than 1 nM. As to `CC(C)Oc1ccc(-c2nc(-c3cccc4c(C(=O)NCCCC(=O)O)c[nH]c34)no2)cc1Cl` [Example 74, 4-({[7-(5-{3-chloro-4-[(1-methylethyl)oxy]phenyl}-1,2,4-oxadiazol-3-yl)-1H-indol-3-yl]carbonyl}amino)butanoic acid], the EC50 is less than 1 nM. The value for `CC(C)Oc1ccc(-c2nc(-c3cccc4c(C(=O)N(C)CCC(=O)O)c[nH]c34)no2)cc1Cl` [Example 75, N-{[7-(5-{3-chloro-4-[(1-methylethyl)oxy]phenyl}-1,2,4-oxadiazol-3-yl)-1H-indol-3-yl]carbonyl}-N-methyl-β-alanine] was less than 10 nM; that for `CC(C)Oc1ccc(-c2nc(-c3cccc4c(C(=O)NCCC(=O)O)cn(C)c34)no2)cc1Cl` [Example 76, N-{[7-(5-{3-chloro-4-[(1-methylethyl)oxy]phenyl}-1,2,4-oxadiazol-3-yl)-1-methyl-1H-indol-3-yl]carbonyl}-β-alanine] was less than 1 nM.
